Laboratory results published in patent US12357619B2, “Noradrenergic and specific serotonergic anxiolytic and antidepressant, method for the production and use thereof” (ALLA CHEM, LLC, priority 2020, dated 2025).
Read-outs that look alike come from different tables or passages of the source.

How the values were obtained:
[1] = Pharmacokinetics, single and multiple dosing of capsules in volunteers (Example 11); format: in vivo, human; conditions: for half-life / Tmax: human, in vivo, oral
Protocol: (§1) Example 11. Safety study of increasing doses of the oral drug of this invention made as a pharmaceutical composition of this invention in capsules. Clinical safety study of increasing doses of the antipsychotic drug made as a pharmaceutical composition of this invention in capsules for single and multiple dosing. The study covered one cohort of 4 volunteers taking antipsychotic drug once at a dose of 20 mg, and then at the same dose 2 times a day for 4 days. Based on the three-week safety data obtained in the 20-mg cohort taking antipsychotic drug twice a day, the independent safety data monitoring Committee took a decision to involve a second cohort of 4 volunteers, in which the antipsychotic drug under test was taken once at a dose of 20 mg and then 3 times a day for 4 days at the same dose.

[2] = system: people with generalized anxiety disorder (GAD); assay: Randomized double-blind placebo-controlled GAD study, Hamilton depression scale (HAMD); format: in vivo, human; conditions: after 8 weeks
Protocol: (§2) Example 12. Efficacy and safety study of the oral drug of this invention made as a pharmaceutical composition of this invention in capsules. […] During the study, 3 scheduled visits were conducted in Week 2, Week 4, and Week 8 to assess the effectiveness and safety of the therapy as well as drug inventory and administration. During all of those visits, the patient's diary was checked, a drug inventory was made and the patients' compliance was assessed. In addition, adverse events, concomitant therapy, and vital signs were evaluated, urine drug screen was performed, and assessments using Hamilton Anxiety Rating Scale (HARS), Hamilton Depression Scale (HAMD), Clinical Global Impression-Severity (CGI-S), Clinical Global Impression-Improvement (CGI-I), and Visual Analog Scale (VAS) were made; women of child-bearing potential will take a urine pregnancy test. Also, during visits at Week 4 and Week 8 a physical examination was performed, body weight was measured, an ECG was performed in 12 leads and blood and urine samples were obtained for laboratory tests, namely: urinalysis and biochemical blood analysis, PK analysis before and 1 hour after taking the study drug (SD), and urinalysis. At Week 4, a blood sample was also obtained for genotyping by CYP2D6. […] During this time, a possible development of SD withdrawal syndrome against the background of placebo was evaluated. […]

[3] = Pharmacokinetics, single oral administration of capsules in healthy volunteers (Example 10); format: in vivo, human; conditions: for AUC(0-inf) / Tmax / Cmax: capsules; for AUC(0-inf) / Tmax: 8 volunteers; for Cmax: average of 8 volunteers
From the text: Clinical study of the safety of the oral drug of this invention.

healthy volunteers = assay: Safety, single oral administration of capsules in healthy volunteers (Example 10); format: in vivo, human
Protocol: Example 10. Clinical study of the safety of the oral drug of this invention. An open-label clinical trial of the pharmacokinetics of the antipsychotic drug made as a pharmaceutical composition of this invention in capsules, was conducted with a single oral administration in 32 healthy volunteers at doses of 2 mg/day (cohort 1, 8 volunteers), 4 mg/day (cohort 1, 8 volunteers), 10 mg/day (cohort 1, 8 volunteers), and 20 mg/day (cohort 1, 8 volunteers), expressed as base A, in accordance with the recommendations of “Good clinical practice (GCP)” on physically and mentally healthy men aged 20-50 years with a body mass index of […].

[4] = system: people with generalized anxiety disorder (GAD); assay: Randomized double-blind placebo-controlled GAD study, Hamilton anxiety scale (HARS); format: in vivo, human; conditions: for HARS average change (standard error): after 8 weeks; for Patients who attained a 50% HARS total score reduction at Week 8, percentage / Patients who attained a 50% HARS total score reduction at Week 8, X (number): MITT population
Protocol: Example 12. Efficacy and safety study of the oral drug of this invention made as a pharmaceutical composition of this invention in capsules. […] During the study, 3 scheduled visits were conducted in Week 2, Week 4, and Week 8 to assess the effectiveness and safety of the therapy as well as drug inventory and administration. During all of those visits, the patient's diary was checked, a drug inventory was made and the patients' compliance was assessed. In addition, adverse events, concomitant therapy, and vital signs were evaluated, urine drug screen was performed, and assessments using Hamilton Anxiety Rating Scale (HARS), Hamilton Depression Scale (HAMD), Clinical Global Impression-Severity (CGI-S), Clinical Global Impression-Improvement (CGI-I), and Visual Analog Scale (VAS) were made; women of child-bearing potential will take a urine pregnancy test. Also, during visits at Week 4 and Week 8 a physical examination was performed, body weight was measured, an ECG was performed in 12 leads and blood and urine samples were obtained for laboratory tests, namely: urinalysis and biochemical blood analysis, PK analysis before and 1 hour after taking the study drug (SD), and urinalysis. At Week 4, a blood sample was also obtained for genotyping by CYP2D6. At Week 8, treatment in the groups was completed, and all patients were prescribed a placebo to be taken during the follow-up period, which lasted 1 week. During this time, a possible development of SD withdrawal syndrome against the background of placebo was evaluated. During the visit at Week 9, the patient's diary was checked, a drug inventory was made and the patients' compliance was assessed. In addition, adverse events, concomitant therapy, and vital signs were evaluated, urine drug screen was performed, and assessments using the Hamilton Anxiety Rating Scale (HARS), Hamilton Depression Scale (HAMD), Clinical Global Impression-Severity (CGI-S), Clinical Global Impression-Improvement (CGI-I), and Visual Analog Scale (VAS) were made; women of child-bearing age will take a urine pregnancy test. At this point, the patients' participation in the study was completed, and they received recommendations for further treatment as part of standard GAD therapy.

volunteers = assay: Safety of increasing doses, single and multiple dosing of capsules in volunteers (Example 11); format: in vivo, human
Protocol: as §1

[5] = system: people with generalized anxiety disorder (GAD); assay: Randomized double-blind placebo-controlled GAD study, clinical global impression-improvement (CGI-I); format: in vivo, human; conditions: after 8 weeks
Protocol: as §2

Serotonin 5-HT7 = Serotonin 5-HT7 (Homo sapiens, UniProt P34969); assay: Receptor activities, Ki (Table 1); format: binding
Serotonin 5-HT7, sequence (P34969 whole entry): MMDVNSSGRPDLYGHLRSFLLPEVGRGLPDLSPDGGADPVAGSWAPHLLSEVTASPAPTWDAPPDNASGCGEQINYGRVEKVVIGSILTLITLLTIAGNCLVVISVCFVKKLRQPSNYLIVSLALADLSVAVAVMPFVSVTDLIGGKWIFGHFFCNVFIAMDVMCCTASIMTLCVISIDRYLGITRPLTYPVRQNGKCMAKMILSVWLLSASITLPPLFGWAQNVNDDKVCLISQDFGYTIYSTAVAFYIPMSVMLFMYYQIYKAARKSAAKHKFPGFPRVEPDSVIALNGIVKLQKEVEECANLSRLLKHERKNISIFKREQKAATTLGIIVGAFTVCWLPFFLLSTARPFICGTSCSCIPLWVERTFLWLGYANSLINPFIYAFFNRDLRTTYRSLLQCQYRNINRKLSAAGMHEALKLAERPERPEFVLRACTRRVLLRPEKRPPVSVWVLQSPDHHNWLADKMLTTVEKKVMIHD

[6] = system: people with generalized anxiety disorder (GAD); assay: Randomized double-blind placebo-controlled GAD study, clinical global impression-severity (CGI-S); format: in vivo, human; conditions: after 8 weeks
Protocol: as §2

[7] = system: people with generalized anxiety disorder (GAD); assay: Randomized double-blind placebo-controlled GAD study, visual analog scale (VAS); format: in vivo, human; conditions: after 8 weeks
Protocol: as §2

[8] = male, human, blood, single oral dose 2 mg
[9] = male, human, blood, single oral dose 4 mg
[10] = male, human, blood, single oral dose 10 mg
[11] = male, human, blood, single oral dose 20 mg
[12] = single doses of 2, 4, 10, and 20 mg, healthy volunteers
[13] = 20 mg once, then 20 mg 2 or 3 times a day for 4 days

For `Cc1ccc2c(c1)c1c(n2CCc2ccccc2)CCN(C)C1.Cl` [A•HCl, 2,8-dimethyl-5-(2-phenylethyl)-2,3,4,5-tetrahydro-1H-pyrido[4,3-b]indole hydrochloride], the “Accumulation factor (Fc)” value ([1]; 40-mg cohort) was 2.5, the “Accumulation factor (Fc)” value ([1]; 60-mg cohort) was 2.1 and the half-life ([1]; 20 mg, single dose, 40-mg cohort) was 618 ± 324 min. For the same compound, the Tmax ([1]; 20 mg, single dose, 40-mg cohort, read-out: Tmax, median) was 45 min, the half-life ([1]; 20 mg, single dose, 60-mg cohort) was 438 ± 156 min and the Tmax ([1]; 20 mg, single dose, 60-mg cohort, read-out: Tmax, median) was 138 min. The Tmax ([1]; 20 mg, single dose, majority of volunteers, read-out: Tmax, variation) was 30 to 240 min, the Tmax ([1]; 40 mg/day, repeated doses, 40-mg cohort, read-out: Tmax, median) was 22.8 min and the Tmax ([1]; 60 mg/day, repeated doses, 60-mg cohort, read-out: Tmax, median) was 60 min. The “Time to stabilization of the residual concentration after the start of regular drug administration” value ([1]; multiple dosing) was 1 to 2 days, the “Tmax, variability range” value ([1]; repeated doses) was 18 to 240 min and the “Increase in T1/2 after repeated administration, on an average” value ([1]; repeated vs single administration) was 1.4 times. The “HAMD average change (standard error)” value ([2]; 40 mg, N = 42, average at Week 0 10.9) was −5.2 (0.57), the “HAMD average change (standard error)” value ([2]; 60 mg, N = 44, average at Week 0 10.9) was −4.4 (0.56) and the “Dose dependence of Cmax and AUC” value ([3]; dose range from 2 to 20 mg) was “linear increase in Cmax and AUC”. For the same compound, the AUC(0-inf) [3, 8] was 0.0946 ng·h/mL, the Tmax [3, 8] was 1 h and the Cmax ([3]; male, human, blood, single oral dose 2 mg, read-out: Cmax) was 2.1 pg/mL. It also gave an AUC(0-inf) [3, 9] of 0.211 ng·h/mL, a Tmax [3, 9] of 1 h and an AUC(0-inf) [3, 10] of 0.462 ng·h/mL. The Tmax [3, 10] was 0.625 h, the AUC(0-inf) [3, 11] was 0.834 ng·h/mL and the Tmax [3, 11] was 1 h. For the same compound, the half-life ([3]; male, human, blood, single oral doses 2 to 20 mg, read-out: Harmonic mean half-life) was ≤ 840 min, the Cmax ([3]; single oral dose 4 mg) was 22.9 pg/mL and the Cmax ([3]; single oral dose 10 mg) was 53.7 pg/mL. For the same compound, the Cmax ([3]; single oral dose 20 mg) was 84.1 pg/mL, the “Time at which the maximum concentration in the blood of the base (A) is reached” value ([3]; single oral doses 2 to 20 mg) was “about an hour” and the Side effects observed (healthy volunteers; 20-mg cohort, single dose) was “drowsiness, agitation and paresthesia”. For the same compound, the “Effect on the parameters of plasma and urine” value (healthy volunteers; [12]) was “neither significantly affect the parameters of plasma and urine”, the Tolerability (healthy volunteers; [12]) was “well tolerated” and the “HARS average change (standard error)” value ([4]; 40 mg, N = 42, average at Week 0 26.9) was −13.4 (1.37). The “HARS average change (standard error)” value ([4]; 60 mg, N = 44, average at Week 0 26.5) was −12.9 (1.37), the “Patients who attained a 50% HARS total score reduction at Week 8, percentage” value ([4]; Dose 60 mg, N = 40) was “(55.0%)” and the “Patients who attained a 50% HARS total score reduction at Week 8, X (number)” value ([4]; Dose 60 mg, N = 40, of Y = 40 patients) was 22. For the same compound, the “Patients who attained a 50% HARS total score reduction at Week 8, percentage” value ([4]; printed Dose 60 mg, N = 42) was “(47.6%)”, the “Patients who attained a 50% HARS total score reduction at Week 8, X (number)” value ([4]; printed Dose 60 mg, N = 42, of Y = 42 patients) was 20 and the “Adverse events associated with taking the drug” value (volunteers; [13]) was “did not reveal any adverse events (AEs) associated with taking the drug”. The “Safety profile and tolerability” value (volunteers; [13]) was “favorable safety profile and good tolerability”, the “Occurrence of AE by daily dose” value (volunteers; 40 mg and 60 mg daily dose cohorts) was “AE were observed only in volunteers who received a daily dose of 60 mg” and the “CGI-I average change (standard error)” value ([5]; 40 mg, N = 42, average at Week 0 4.00) was −1.63 (0.14). The “CGI-I average change (standard error)” value ([5]; 60 mg, N = 44, average at Week 0 4.03) was −1.68 (0.14), the Ki (Serotonin 5-HT7) was 0.153 nM and the “CGI-S average change (standard error)” value ([6]; 40 mg, N = 42, average at Week 0 4.24) was −1.34 (0.19). For the same compound, the “CGI-S average change (standard error)” value ([6]; 60 mg, N = 44, average at Week 0 4.28) was −1.21 (0.19), the “VAS average change (standard error)” value ([7]; 40 mg, N = 42, average at Week 0 24.1) was −9.5 (3.24) and the “VAS average change (standard error)” value ([7]; 60 mg, N = 44, average at Week 0 27.4) was −11.1 (3.23).
